Converted amounts (≈) assume the structure as drawn.
How the values were obtained:
Format in all cases: functional, cell-based
[1] = tested on: A2780; assay: Cytotoxicity against human A2780 cells by MTT assay
[2] = tested on: HCT-8; assay: Cytotoxicity against human HCT8 cells by MTT assay
[3] = Cytotoxicity against human Bel 7402 cells by MTT assay
[4] = tested on: A549; assay: Cytotoxicity against human A549 cells by MTT assay
[5] = Cytotoxicity against human BGC 823 cells by MTT assay

SMILES | IC50 [1] | IC50 [2] | IC50 [3] | IC50 [4] | IC50 [5]
O=c1[nH]cc(F)c(=O)[nH]1 [FLUOROURACIL] | 0.65 µg/mL (≈ 5 µM) | 0.54 µg/mL (≈ 4.15 µM) | 0.54 µg/mL (≈ 4.15 µM) | 0.18 µg/mL (≈ 1.38 µM) | 0.7 µg/mL (≈ 5.38 µM)
CC1=C2C(=C[C@H]3[C@]4(C)CCC(=O)C(C)(C)[C@H]4CC[C@]34O[C@H]24)OC1=O | 8.22 µg/mL (≈ 25 µM) | > 10 µg/mL | 7.53 µg/mL (≈ 22.9 µM) | > 10 µg/mL | > 10 µg/mL

Reference: ChEMBL document CHEMBL1144762, “Diterpenoids from the roots of Suregada glomerulata” (J Nat Prod, 2008)
